Laboratory results published in paper PMC10657444, “Design and evaluation of tadpole-like conformational antimicrobial peptides” (Communications Biology, 2023).
In brackets after ≈: the same amount, converted by molar mass. Like-named read-outs stand apart in the source and are kept apart here. Residues, ends and D or L forms follow the SMILES beside them.

Key:
MRSA 3393 = assay type: cell-based, Staphylococcus aureus
Source text: (§1) Bacteria were cultivated in Luria-Bertani (LB) broth.

MRSA ATCC 43300 = assay type: cell-based, Staphylococcus aureus
Source text: as §1

MRSA USA 300 = assay type: cell-based, Staphylococcus aureus
Source text: as §1

E. coli ATCC 25922 = assay type: cell-based, Escherichia coli
Source text: as §1

E. coli S = assay type: cell-based, Escherichia coli
Source text: as §1

A. baumannii 1318 = assay type: cell-based, Acinetobacter baumannii
Source text: as §1

A. baumannii 1337 = assay type: cell-based, Acinetobacter baumannii
Source text: as §1

K. pneumoniae 3026 = assay type: cell-based, Klebsiella pneumoniae
Source text: as §1

[1] = tested on: K. pneumoniae ATCC 700603; assay type: cell-based, Klebsiella pneumoniae
Source text: as §1

MTT cytotoxicity assay = assay type: cell-based, human; settings: human
Procedure: (§2) To determine the cytotoxicity of the peptides, we used the MTT (3-(4,5)-dimethylthiahiazo (-z-y1)-3,5-di-phenytetrazoliumromide) dye reduction assay against HEK293T cells. In brief, the 100 μL of cells in 96-well plate were incubated for 24 h at 37 °C, 5% CO2, and then peptide solutions (concentrations ranging from 100 to 0.39 μM) were added and further incubated for 72 h. MTT solution (5 mg/mL) was added and further incubated for 4 h. After incubation, the precipitated MTT formazan crystal was dissolved by addition of dimethyl sulfoxide (DMSO). […]

HEK293T cells = assay: MTT cytotoxicity assay; assay type: cell-based, human
Procedure: as §2

sheep red blood cells = assay: Hemolysis assay; settings: red cells of sheep, 1 h
Procedure: To evaluate the hemolysis effects of peptides, red blood hemolysis was performed as described with minimum modifications. Sterile defibrated sheep blood was purchased from Guangzhou Hongquan Biotechnology Co., LTD. Blood cells were adjusted to 2 × 10^9 cells/mL in phosphate-buffered saline (PBS, pH 7.4). In total, 98 μL sheep red blood cell suspension was incubated with 2 μL of peptides at different concentrations ranging from 3.13 to 100 µM. After incubation for 1 h at 37 °C, the cells were centrifuged and the absorbance of the supernatant was measured at 450 nm. The value for “zero hemolysis” was determined using sterile PBS, while 100% hemolysis was established using 1.5% (v/v) Triton X-100. Hemolysis of testing sample was calculated as the percentage of Triton X-100-induced hemolysis.

[2] = tested on: Gram-negative bacterial strains; assay type: cell-based
Source text: as §1

[3] = HEK293T cells, OD450, cytotoxicity (Fig 2a), replicates

SMILES | MIC Gram+ MRSA 3393 (MRSA 3393) [µM] | MIC Gram+ MRSA ATCC 43300 (MRSA ATCC 43300) [µM] | MIC Gram+ MRSA ATCC 43300 (MRSA ATCC 43300; ATCC 43300) [µM] | MIC Gram+ MRSA USA 300 (MRSA USA 300) [µM] | MIC Gram- E. coli ATCC 25922 (E. coli ATCC 25922) [µM] | MIC Gram- E. coli S (E. coli S) [µM] | MIC Gram- A. b 1318 (A. baumannii 1318) [µM] | MIC Gram- A. b 1337 (A. baumannii 1337) [µM] | MIC Gram- K. p 3026 (K. pneumoniae 3026) [µM] | MIC Gram- K. p ATCC 700603 [1] [µM] | IC50 at 72 h (MTT cytotoxicity assay) [nM] | viability at 72 h, 0.39 µM (MTT cytotoxicity assay; [3]) [%] | viability at 72 h, 0.78 µM (MTT cytotoxicity assay; [3]) [%] | viability at 72 h, 1.57 µM (MTT cytotoxicity assay; [3]) [%] | viability at 72 h, 6.25 µM (MTT cytotoxicity assay; [3]) [%] | viability at 72 h, 12.5 µM (MTT cytotoxicity assay; [3]) [%] | viability at 72 h, 25 µM (MTT cytotoxicity assay; [3]) [%] | viability at 72 h, 50 µM (MTT cytotoxicity assay; [3]) [%] | viability at 72 h, 100 µM (MTT cytotoxicity assay; [3]) [%] | toxicity / cytotoxicity against HEK293T cells (in words) (HEK293T cells) | also measured
CC[C@H](C)[C@H](NC(=O)[C@H](CCCNC(=N)N)NC(=O)[C@H](CCCNC(=N)N)NC(=O)[C@H](CC(C)C)NC(=O)[C@H](Cc1ccccc1)NC(=O)[C@H](Cc1ccccc1)NC(=O)[C@H](Cc1ccccc1)NC(=O)[C@@H](N)Cc1ccccc1)C(=O)N[C@@H](Cc1ccccc1)C(=O)N[C@@H](CCCNC(=N)N)C(=O)N[C@@H](CCCNC(=N)N)C(N)=O [F-SHf(R^5)-RR] (H-FFFFLRRIFRR-NH2; N-terminus assumed) | 1.57 (≈ 2.52 µg/mL) | 1.57 (≈ 2.52 µg/mL) | 1.57 (≈ 2.52 µg/mL) | 1.57 (≈ 2.52 µg/mL) | 12.5 (≈ 20 µg/mL) | 6.25 (≈ 10 µg/mL) | 12.5 (≈ 20 µg/mL) | 12.5 (≈ 20 µg/mL) | 12.5 (≈ 20 µg/mL) | 25 (≈ 40.1 µg/mL) | 500 | 69.1 | 45.9 | 6.12 | 3.98 | 2.72 | 3.79 | 2.62 | 1.75 | high toxicity | HC10 (concentration inducing 10% hemolysis) (sheep red blood cells): > 100.0 µM; MICs against the tested Gram-negative bacterial strains [2]: 6.25 to 25 µM
CC[C@H](C)[C@H](NC(=O)[C@H](CCCNC(=N)N)NC(=O)[C@H](CCCNC(=N)N)NC(=O)[C@H](CC(C)C)NC(=O)[C@H](Cc1ccccc1)NC(=O)[C@H](Cc1ccccc1)NC(=O)[C@H](Cc1ccccc1)NC(=O)[C@@H](N)Cc1ccccc1)C(=O)N[C@@H](Cc1ccccc1)C(=O)N[C@@H](CCCNC(=N)N)C(N)=O [F-SHf(R^5)-R] (H-FFFFLRRIFR-NH2; N-terminus assumed) | 1.57 (≈ 2.27 µg/mL) | 1.57 (≈ 2.27 µg/mL) | 1.57 (≈ 2.27 µg/mL) | 1.57 (≈ 2.27 µg/mL) | 6.25 (≈ 9.05 µg/mL) | 12.5 (≈ 18.1 µg/mL) | 12.5 (≈ 18.1 µg/mL) | 12.5 (≈ 18.1 µg/mL) | 25 (≈ 36.2 µg/mL) | 12.5 (≈ 18.1 µg/mL) | 200 | 35.2 | 26.2 | 12.3 | 4.46 | 3.13 | 3.84 | 2.63 | 1.58 | high toxicity | viability at 72 h, 3.13 µM (MTT cytotoxicity assay; [3]): 9.86%; HC10 (concentration inducing 10% hemolysis) (sheep red blood cells): 36.5 µM; MICs against the tested Gram-negative bacterial strains [2]: 6.25 to 25 µM
